Measurements: patent publication US8193353B2, “6-1H-imidazo-quinazoline and quinolines derivatives, new potent analgesics and anti-inflammatory agents” (Rottapharm S.p.A, priority 2006, dated 2012)
pIC50: −log10 of the molar value. Read-outs that look alike come from different tables or passages of the source.

Key:
[1] = system: mechanical hyperalgesia associated with STZ-induced diabetes; assay: STZ-induced diabetes mechanical hyperalgesia (neuropathic pain); type: in vivo, rat; conditions: for ED50: Rattus norvegicus, ip, read-out: ED50 0.5 hrs; for ED100 0.5 hrs: i.p.
Description: Painful diabetic neuropathy is one of the most common complications of insulin-dependent diabetes in man; in particular, diabetes can be associated with neuropathic pain which fails to be treated by classical analgesics. Streptozotocin (STZ)-induced diabetes in the rat has been increasingly used as a model of painful diabetic neuropathy to assess the efficacies of potential analgesic agents (C. Courteix, Pain 1993, 53, 81-8). The compounds of the invention were tested for efficacy in reducing mechanical hyperalgesia associated with STZ-induced diabetes in the rat, according to the experimental model as described by the literature. Diabetes was produced with the injection of a single dose (75 mg/Kg i.p.) of STZ. In the following four weeks after the induction of diabetes the clinical symptoms (weight, body and skin temperature, motility and hyperglycemia) progressively developed by the animals, are strictly monitored. After four weeks, the scores obtained in diabetic rats to various pain stimuli (in particular mechanical stimuli) were greater than those in normal rats, indicating hyperalgesia. The hyperalgesia induced by diabetes was evaluated using the Randall-Selitto method as above described, and quantitated using the analgesimeter. Also in this case, the difference in the mechanical pain threshold between the basal value (generally 230-250 g) and the one tolerated by the animals treated with the drug, is defined as mechanical hyperalgesia. The compounds of the invention were administered i.p. (solution, Tween 80, 10% in saline) at different doses, and mechanical hyperalgesia was measured at the reported time, as maximum percent effect (MPE) which represents the difference (%) in pain threshold between the animals treated with the drug and the controls that received only the vehicle, compared with the weight borne by naïf non-diabetic controls. A 100% protection means that the diabetic animals treated with the compound can tolerate the same stimulus (weight) as the naïf non-diabetic animals. MPE higher than 100% means that the diabetic animal treated with the compound can tolerate stimuli (weight) higher than the control non-diabetic animals (hypoalgesia).
In particular, from the MPE data at 0.5 hrs, the doses yielding a protection of 50% (ED50) and 100% (ED100) have been calculated.

[2] = system: Zymosan induced paw volume increase; assay: Zymosan-induced paw oedema; type: in vivo, rat; conditions: oral, 2 hours after challenge
Description: (§1) The interplantar injection of Zymosan-induced mechanical hyperalgesia was used as a model of inflammatory pain (Meller, Neuropharmacology, 1994, 33, 1471-1478). In this model, typically a male Sprague-Dawley or Wistar rat (200-250 g) receives an interplantar injection of 3 mg/100 μl zymosan into one hind paw. A marked inflammation occurs in this hind paw. Drugs are administered orally for evaluation of efficacy, 30 min. before the inflammatory insult. The hyperalgesia induced by zymosan administration was evaluated using the Randall-Selitto method (Arch. Int. Pharmacodyn., 1957, 111, 409). The quantitation of the analgesic effect is achieved by an analgesimeter, which consist in applying to the inflamed paw an increasing weight (from 130-140 g up to 500 g). The difference in the mechanical pain threshold between the basal value (generally 230-250 g) and the one tolerated by the animals treated with the drug, determined 4 hours after the inflammatory challenge, is defined as mechanical hyperalgesia. Mechanical hyperalgesia is expressed for the compounds of the invention as ED50, which is the dose of the administered compound able to increase the pain threshold by 50% in comparison with the group of control animals. The corresponding ED100, representing the dose able of reducing of 100% the pain threshold, can be calculated for those cases where there is a linear dose-response relationship. In vivo anti-inflammatory effect exerted by the compound of the invention can be assessed in the same Zymosan induced inflammation test described above, by measuring the volume of the oedema induced by the inflammatory agent. The oedema was evaluated as the increase in the volume of the Zymosan injected paw within a time of 0-2 hrs. The measurements of the variation of the oedema volume of the paw were recorded using hydroplethysmometer, which consists of two plastic cuvettes containing a surfactant liquid, the larger one being used for immersion of the paw, connected to the smaller one which contains a transducer capable of recording small displacements of the volume used for the measure. The paw is immersed in the cuvettes up to the tibiotarsal joint. The volume of the liquid displaced is proportional to the extent of the inflammation. The efficacy of the compounds of the invention in preventing oedema formation is expressed as ED30, is measured 2 hours after the inflammatory challenge, and represents the dose able of reducing of 30%, the Zymosan induced paw volume increase in comparison to control animals (animals treated with Zymosan but treated with only distilled water instead of the testing compound). The corresponding ED50, representing the dose able of reducing of 50% the Zymosan induced paw volume increase, can be calculated for those cases where there is a linear dose-response relationship. In both the experiments, for each test compound, at least three doses were used, with 10 animals per group. Compounds of the invention were tested at 10, 20 and 40 mg/Kg.

[3] = system: Zymosan-induced mechanical hyperalgesia; assay: Zymosan-induced mechanical hyperalgesia (Randall-Selitto), inflammatory pain; type: in vivo, rat; conditions: for ED50: Rattus norvegicus, read-out: Analgesia ED50
Description: as §1

[4] = system: CFA-induced prolonged inflammation; assay: CFA model of chronic inflammatory pain; type: in vivo, rat; conditions: for ED50: Rattus norvegicus, ip; for ED50 / ED100 0.5 hrs: calculated from MPE data at 0.5 hrs; for ED100 0.5 hrs: i.p.
[5] = system: IL-1β; assay: IL-1β production in IL-1 stimulated human chondrosarcoma cell line; type: cell-based
Source text: (§2) The compounds of the invention have been found effective in interfering with COX-2 and cytokines production, in several cell lines; examples of these effects are reported in Table 3, for COX-2 and IL-1β and IL-6 cytokines, in IL-1 stimulated human chondrosarcoma cell line.

[6] = system: IL-6; assay: IL-6 production in IL-1 stimulated human chondrosarcoma cell line; type: cell-based
Source text: as §2

[7] = system: COX-2; assay: COX-2 production in IL-1 stimulated human chondrosarcoma cell line; type: cell-based; conditions: for inhibition at 0.3 µM / inhibition at 1 µM / inhibition at 10 µM: Homo sapiens
Source text: as §2

[8] = even at the higher doses tested
Source text: The performance of representative compounds of Formula (I), in the tests described above, is summarized for both the analgesic effect and the anti-inflammatory effect in Table 4, where the activity of the compounds of the invention is compared with the performance in the same test of well known standards.

[9] = oral, 30 min before zymosan, 4 hours after challenge
[10] = calculated from MPE data at 0.5 hrs

CN(C)CCC=C1c2ccccc2CCc2ccccc21 [Amitriptyline, reference compound]
MPE 0.5 hrs. ([1]; 3 mg/kg i.p.): 44% | MPE 1.5 hrs. ([1]; 3 mg/kg i.p.): 40% | MPE 3 hrs. ([1]; 3 mg/kg i.p.): 5% | MPE 0.5 hrs. ([1]; 10 mg/kg i.p.): 68% | MPE 1.5 hrs. ([1]; 10 mg/kg i.p.): 77% | MPE 0.5 hrs. ([1]; 30 mg/kg i.p.): 65% | MPE 1.5 hrs. ([1]; 30 mg/kg i.p.): 69% | MPE 3 hrs. ([1]; 30 mg/kg i.p.): 23%

Cc1ccc(-c2cc(C(F)(F)F)nn2-c2ccc(S(N)(=O)=O)cc2)cc1 [Celecoxib]
Oedema Reduction ED30 [2]: 13.8 mg/kg | ED50 [3, 9]: 9 mg/kg | Analgesia ED100 [3, 9]: 1172 mg/kg

CN1C(C(=O)Nc2ccccn2)=C(O)c2ccccc2S1(=O)=O [Piroxicam, reference compound]
MPE 0.5 hrs. ([4]; 30 mg/kg i.p.): 102% | MPE 1.5 hrs. ([4]; 30 mg/kg i.p.): 111% | MPE 3 hrs. ([4]; 30 mg/kg i.p.): 54% | MPE 6 hrs. ([4]; 30 mg/kg i.p.): 24% | MPE 24 hrs. ([4]; 30 mg/kg i.p.): 38%

COc1cccc(C2(O)CCCCC2CN(C)C)c1 (stereo not shown) [Tramadol, reference compound]
MPE 0.5 hrs. ([1]; 3 mg/kg i.p.): 26% | MPE 1.5 hrs. ([1]; 3 mg/kg i.p.): 53% | MPE 3 hrs. ([1]; 3 mg/kg i.p.): 7% | MPE 0.5 hrs. ([1]; 10 mg/kg i.p.): 58% | MPE 1.5 hrs. ([1]; 10 mg/kg i.p.): 48% | MPE 3 hrs. ([1]; 10 mg/kg i.p.): 27% | MPE 0.5 hrs. ([1]; 30 mg/kg i.p.): 54% | MPE 1.5 hrs. ([1]; 30 mg/kg i.p.): 64% | MPE 3 hrs. ([1]; 30 mg/kg i.p.): 23% | MPE 0.5 hrs. ([1]; 50 mg/kg i.p.): 81% | MPE 1.5 hrs. ([1]; 50 mg/kg i.p.): 60% | MPE 3 hrs. ([1]; 50 mg/kg i.p.): 43% | ED50 ([1]; 0.5 h): 10.9 mg/kg | ED100 0.5 hrs ([1]; extrapolated from a dose-response curve approaching the 100% protection): 251 mg/kg | ED50 [3]: 25.7 mg/kg | Analgesia ED100 [3, 9]: 405 mg/kg

c1cn(-c2ccc3nc(-c4ccc5c(c4)OCCO5)ncc3c2)cn1 [Example 5]
inhibition at 0.3 µM [5]: 20% | inhibition at 1 µM [5]: 30% | inhibition at 10 µM [5]: 40% | inhibition at 10 µM ([6]; 10 μM): 35% | inhibition at 0.3 µM [7]: 50% | inhibition at 1 µM [7]: 60% | inhibition at 10 µM [7]: 70%

c1cn(-c2ccc3nc(-c4ccc5c(c4)OCO5)ncc3c2)cn1 [Example 3, [2-(1,3-benzodioxol-5-yl)-6-(1H-imidazol-1-yl)]quinazoline]
Oedema Reduction ED30 [2]: 172 mg/kg | inhibition at 0.3 µM [5]: 20% | inhibition at 1 µM [5]: 15% | inhibition at 10 µM [5]: 40% | MPE 0.5 hrs. ([4]; 3 mg/kg i.p.): 54% | MPE 1.5 hrs. ([4]; 3 mg/kg i.p.): 90% | MPE 3 hrs. ([4]; 3 mg/kg i.p.): 32% | MPE 6 hrs. ([4]; 3 mg/kg i.p.): 5% | MPE 0.5 hrs. ([4]; 10 mg/kg i.p.): 216% | MPE 1.5 hrs. ([4]; 10 mg/kg i.p.): 188% | MPE 3 hrs. ([4]; 10 mg/kg i.p.): 85% | MPE 6 hrs. ([4]; 10 mg/kg i.p.): 23% | MPE 24 hrs. ([4]; 10 mg/kg i.p.): 3% | MPE 0.5 hrs. ([4]; 30 mg/kg i.p.): 344% | MPE 1.5 hrs. ([4]; 30 mg/kg i.p.): 198% | MPE 3 hrs. ([4]; 30 mg/kg i.p.): 101% | MPE 6 hrs. ([4]; 30 mg/kg i.p.): 49% | MPE 24 hrs. ([4]; 30 mg/kg i.p.): 41% | ED50 [4]: 2.7 mg/kg | ED100 0.5 hrs [4]: 4.7 mg/kg | inhibition at 0.3 µM [6]: 20% | inhibition at 1 µM ([6]; 1 μM): 35% | inhibition at 0.3 µM [7]: 35% | inhibition at 1 µM [7]: 64% | inhibition at 10 µM [7]: 75% | pIC50 ([7]; IL-1 stimulated human chondrosarcoma cell line, read-out: IC50 (inhibition of COX-2 production)): 6.20 | MPE 0.5 hrs. ([1]; 3 mg/kg i.p.): 73% | MPE 1.5 hrs. ([1]; 3 mg/kg i.p.): 88% | MPE 3 hrs. ([1]; 3 mg/kg i.p.): 50% | MPE 6 hrs. ([1]; 3 mg/kg i.p.): 24% | MPE 0.5 hrs. ([1]; 10 mg/kg i.p.): 141% | MPE 1.5 hrs. ([1]; 10 mg/kg i.p.): 143% | MPE 3 hrs. ([1]; 10 mg/kg i.p.): 98% | MPE 6 hrs. ([1]; 10 mg/kg i.p.): 49% | MPE 0.5 hrs. ([1]; 30 mg/kg i.p.): 283% | MPE 1.5 hrs. ([1]; 30 mg/kg i.p.): 273% | MPE 3 hrs. ([1]; 30 mg/kg i.p.): 263% | MPE 6 hrs. ([1]; 30 mg/kg i.p.): 264% | ED50 [1, 10]: 2.9 mg/kg | ED100 0.5 hrs [1, 10]: 5.3 mg/kg | ED50 [3, 9]: 2.8 mg/kg | Analgesia ED100 [3, 9]: 5 mg/kg

c1ccc(-c2ncc3cc(-n4ccnc4)ccc3n2)cc1 [Example 1, [2-phenyl-6-(1H-imidazol-1-yl)]quinazoline]
ED50 ([2]; Rattus norvegicus, read-out: Oedema Reduction ED50): 97 mg/kg | Oedema Reduction ED30 [2]: 7.3 mg/kg | inhibition at 0.3 µM [5]: 10% | MPE 0.5 hrs. ([4]; 3 mg/kg i.p.): 52% | MPE 1.5 hrs. ([4]; 3 mg/kg i.p.): 4% | MPE 0.5 hrs. ([4]; 10 mg/kg i.p.): 67% | MPE 1.5 hrs. ([4]; 10 mg/kg i.p.): 63% | MPE 3 hrs. ([4]; 10 mg/kg i.p.): 29% | MPE 6 hrs. ([4]; 10 mg/kg i.p.): 22% | MPE 24 hrs. ([4]; 10 mg/kg i.p.): 5% | MPE 0.5 hrs. ([4]; 30 mg/kg i.p.): 367% | MPE 1.5 hrs. ([4]; 30 mg/kg i.p.): 368% | MPE 3 hrs. ([4]; 30 mg/kg i.p.): 321% | MPE 6 hrs. ([4]; 30 mg/kg i.p.): 239% | MPE 24 hrs. ([4]; 30 mg/kg i.p.): 60% | ED50 [4]: 5.5 mg/kg | ED100 0.5 hrs [4]: 9.6 mg/kg | inhibition at 0.3 µM [6]: 35% | inhibition at 0.3 µM [7]: 20% | MPE 0.5 hrs. ([1]; 3 mg/kg i.p.): 24% | MPE 0.5 hrs. ([1]; 10 mg/kg i.p.): 41% | MPE 1.5 hrs. ([1]; 10 mg/kg i.p.): 68% | MPE 0.5 hrs. ([1]; 30 mg/kg i.p.): 236% | MPE 1.5 hrs. ([1]; 30 mg/kg i.p.): 225% | MPE 3 hrs. ([1]; 30 mg/kg i.p.): 171% | MPE 6 hrs. ([1]; 30 mg/kg i.p.): 34% | ED50 [1, 10]: 5.5 mg/kg | ED100 0.5 hrs [1, 10]: 9.6 mg/kg | ED50 [3, 9]: 6.5 mg/kg | Analgesia ED100 [3, 9]: 10 mg/kg

CS(=O)(=O)Nc1ccc([N+](=O)[O-])cc1Oc1ccccc1 [Nimesulide]
Oedema Reduction ED30 [2]: 0.5 mg/kg | ulcerative side effects [8]: ulcerative side effects | ED50 [3, 9]: 7.4 mg/kg | Analgesia ED100 [3, 9]: 161 mg/kg
